{
  "source": "patent US9358276B2",
  "about": "“Methods of diagnosing and treating small intestinal bacterial overgrowth (SIBO) and SIBO-related conditions” (Cedars-Sinai Medical Center, priority 1999, dated 2016)",
  "format_in_all_cases": "in vivo, human",
  "key": {"[1]": {"system": "SIBO", "experiment": "Neomycin treatment of subjects with IBS and SIBO (LBHT, VAS)", "protocol": "Subjects were tested after an overnight fast. At time zero, each subject swallowed 15 ml of Chronulac formula, delivering 10 g of lactulose; every 5-20 min thereafter, for 2-4 hours, a 50 cm^3 end-expiratory breath sample was taken with an airtight sampling bag. Each breath sample was then analyzed for hydrogen content with a gas chromatograph (Quintron Model DP, Quintron Instrument Co., Division of E.F. Brewer Co, Menomonee Falls, Wis. 53051), standardized using a QuinGas standard as instructed by the manufacturer. Hydrogen peaks were plotted before and after an antimicrobial treatment regimen for comparison. The normal range for the second hydrogen peak was 0 to 20 ppm.\nThe two hundred-two (202) human subjects were assessed for SIBO with LBHT. Of the 202 subjects in the database, 95 claimed to have been given a diagnosis of IBS. […] After these 22 subjects were excluded, 73 subjects remained.\nOf the 124, 92 (74%) were positive for SIBO. […] Therefore, the incidence of SIBO among the 110 untreated subjects was 92 (84%), showing a strong association between a suspected diagnosis of IBS and the presence of SIBO. After neomycin treatment (500 mg twice daily for ten days), 23 of these 92 returned for follow-up testing. On a visual analog scores (VAS), subjects were asked to rate their degree of post-treatment improvement. These 23 subjects reported a 60±31% improvement, although 17 had only partial eradication of SIBO, based on their LBHT results. (FIG. 1).\nThere was a likely selection bias in the database due to the fact that subjects were referred for LBHT, because their physicians suspected they had SIBO. To correct for this bias, a pilot study was also conducted looking at the incidence of bacterial overgrowth in patients with IBS. […] Eight human subjects with a suspected diagnosis of IBS, based on the Rome criteria, were tested for SIBO, using LBHT as described in Example 2. […] Six of the 7 subjects testing positive for SIBO returned approximately 10 days after completion of a 10 day course of neomycin as described above. […] The six subjects reported an average improvement in their IBS symptoms of 65±28% (Range: 20-100%) on VAS scoring."}, "[2]": {"system": "SIBO", "experiment": "Case: ADHD with SIBO, neomycin", "settings": "one patient", "description": "A person was brought in by their parent with a suspected diagnosis of attention deficit/hyperactivity disorder (AD type), made by a pediatrician. Concurrently, they also had significant bloating, gas and some alteration in bowel habits. They had initially been referred for diagnosis by their teachers and school counselors, because they had been having difficulty performing in school for the previous two to three years, after having previously been a very good student. Prior to the detection of SIBO, the subject had been treated with multiple pharmacologic agents for depression, including amitryptiline, with no noticeable improvement in their symptoms.\nAdditionally, they started to get AA≅ averages in school again after being in the AC≅ range."}, "[3]": {"system": "SIBO", "experiment": "Neomycin treatment of SLE subjects with SIBO", "protocol": "Fifteen of the 202 (7.4%) subjects in the database had been diagnosed with SLE. Of these 15 subjects, 13 (87%) had bacterial overgrowth, as indicated by LBHT. Four of the 15 subjects with SLE returned for follow-up LBHT and questionnaire after treatment with neomycin (500 mg twice daily for 10 days). […] (Table 3)."}, "[4]": {"system": "SIBO", "experiment": "Case: depression with SIBO, neomycin", "settings": "one patient", "description": "A person presented with bloating, gas, abdominal distention, and cramping for a period of 3 years prior to LBHT. Symptoms of depression first appeared concurrently with the first appearance of bowel symptoms, and were serious enough that psychiatric hospitalization had been considered by their attending psychiatrist. The subject reported feeling very depressed and was convinced that life was not worth living. The subject=s LBHT indicated the presence of a SIBO condition. […] The subject had been prescribed eight different anti-depressant medications, all of which were discontinued as a result of their improvement."}, "[5]": {"system": "SIBO", "experiment": "Neomycin/antibiotic treatment of subjects with fibromyalgia and SIBO", "description": "Of these 37, 28 tested positive for SIBO.\nThese ten subjects reported a 63±19% overall improvement in their symptoms by VAS scoring. FIG. 3 compares the VAS scores for various symptoms reported by the subjects with a suspected diagnosis of fibromyalgia before and after neomycin treatment. Symptoms included bloating, gas, diarrhea, joint pain and fatigue to treatment. Subjects were asked to identify the symptom most improved. Five subjects reported that pain was the most improved; three subjects reported that the level of fatigue was most improved, and two others reported that their abdominal complaints improved the most. There was a negative correlation between the degree of improvement in the VAS scoring and the amount of residual hydrogen peak seen in LBHT. (Pearson=−0.689, p=0.02; FIG. 4).\nSubsequently, forty-six human subjects with FM (ACR criteria) entered a double blind randomized placebo controlled trial. Each subject underwent LBHT, a tender point examination and completed a questionnaire at the initial (baseline) and at every subsequent visit. Subjects were randomized to receive neomycin (500 mg twice daily in liquid form) or a matched placebo, for 10 days. After completion of this treatment, subjects with persistent SIBO received antibiotics (open label) until at least partially eradication was confirmed by LBHT. […] Six out of 20 patients (30%) in the neomycin group achieved complete […] eradication in the blinded arm. […] (Initial data in Table 1a)."}, "[6]": {"system": "SIBO", "experiment": "Comparison of antibiotic regimes for eradicating SIBO, follow-up lactulose breath hydrogen test (LBHT)", "protocol": "Subjects were tested after an overnight fast. […] Each breath sample was then analyzed for hydrogen content with a gas chromatograph (Quintron Model DP, Quintron Instrument Co., Division of E.F. Brewer Co, Menomonee Falls, Wis. 53051), standardized using a QuinGas standard as instructed by the manufacturer. Hydrogen peaks were plotted before and after an antimicrobial treatment regimen for comparison. The normal range for the second hydrogen peak was 0 to 20 ppm. Subjects referred to the Cedars-Sinai GI Motility Program for a lactulose breath hydrogen test (LBHT) to assess SIBO were entered into a database. Those that tested positive for SIBO were given antibiotic treatment by their referring physician and in some cases, returned for a follow-up LBHT to assess eradication of SIBO. During the follow-up LBHT, subjects were asked which antibiotic they were given to treat their SIBO. The eradication rate of each antibiotic was evaluated. Of the 771 subjects in the database, 561 (73%) tested positive for SIBO. […] (See Table 1 below). […] None of the commonly used antibiotics was universally successful in eradicating overgrowth."}},
  "data": [
    {"substance": "neomycin", "values": [
      {"measurement": "degree of post-treatment improvement (VAS)", "setting": "[1]; 23 IBS subjects with SIBO, 500 mg twice daily for ten days", "result": "60±31", "unit": "%"},
      {"measurement": "subjects with only partial eradication of SIBO (LBHT)", "setting": "[1]; of the 23 returning subjects", "result": 17},
      {"measurement": "average improvement in IBS symptoms on VAS scoring", "setting": "[1]; pilot study, six subjects", "result": "65±28", "unit": "%"},
      {"measurement": "post-treatment breath hydrogen peaks", "setting": "[1]; pilot study, six subjects", "result": "0-20 ppm"},
      {"measurement": "range of improvement in IBS symptoms on VAS scoring", "setting": "[1]; pilot study, six subjects", "result": "20-100%"},
      {"measurement": "eradication of SIBO (LBHT)", "setting": "[1]; pilot study, six subjects, 10 day course", "result": "completely eradicated"},
      {"measurement": "concentration", "setting": "[2]", "result": "able to concentrate better"},
      {"measurement": "time to relapse of attention problem and bacterial overgrowth", "setting": "[2]", "result": "Approximately two"},
      {"measurement": "response to repeat treatment", "setting": "[2]; repeat 500 mg twice daily for 10 days", "result": "improved concentration and resolution of bowel symptoms"},
      {"measurement": "bowel symptoms", "setting": "[2]; 500 mg twice daily for 10 days", "result": "resolution of their bowel symptoms"},
      {"measurement": "VAS score Fatigue, After Antibiotic", "setting": "[3]; four SLE patients", "result": "3.5 ± 1.4"},
      {"measurement": "VAS score Gas, After Antibiotic", "setting": "[3]; four SLE patients", "result": "1.9 ± 1.7"},
      {"measurement": "VAS score Joint Pains, After Antibiotic", "setting": "[3]; four SLE patients", "result": "0.5 ± 0.6"},
      {"measurement": "VAS score Bloating, After Antibiotic", "setting": "[3]; four SLE patients, neomycin 500 mg twice daily for 10 days", "result": "1.3 ± 1.3"},
      {"measurement": "LBHT result after treatment", "setting": "[3]; four SLE subjects", "result": "negative for SIBO"},
      {"measurement": "depression", "setting": "[4]", "result": "completely resolved"},
      {"measurement": "patients achieving complete eradication of SIBO in the blinded arm", "setting": "[5]; six out of 20, 500 mg twice daily liquid, 10 days", "result": 30, "unit": "%"},
      {"measurement": "eradication of SIBO (post-treatment LBHT)", "setting": "[5]; ten fibromyalgia subjects", "result": "at least partially eradicated"},
      {"measurement": "overall improvement in symptoms by VAS scoring", "setting": "[5]; ten fibromyalgia subjects, 500 mg twice daily, 10-day course", "result": "63±19", "unit": "%"},
      {"measurement": "success in eradicating SIBO, comparison of antibiotics", "setting": "[6]; 105 subjects with follow-up LBHT", "result": "most successful"},
      {"measurement": "% Patients with SIBO Eradicated", "setting": "[6]; follow-up LBHT", "result": 55, "unit": "%"}
    ]}
  ]
}
